System: T1, MbCld
T1 construct: gene cld; native, soluble protein fraction of chlorate-grown cells; not purified
Assay: chloride ion selective electrode, initial rates, Michaelis-Menten fit
Assay type: biochemical, Magnetospirillum bellicus
Settings: 10 mM phosphate buffer pH 7.0, 21–23°C; soluble protein fraction
Text: chloride ion selective electrode, initial rates, Michaelis-Menten fit on MbCld

[O-][Cl+]O [chlorite]
Km: 360 ± 210 µM
